# Source: ChEMBL document CHEMBL1138057, “Synthesis and structure-activity relationships of N-{3-[2-(4-alkoxyphenoxy)thiazol-5-yl]-1- methylprop-2-ynyl}carboxy derivatives as selective acetyl-CoA carboxylase 2 inhibitors” (J Med Chem, 2006)
# Activity calls are given as the source filed them. The rule behind the calls is not given here.
# Tests used:
# Acetyl-CoA carboxylase 1 = Acetyl-CoA carboxylase 1 (Homo sapiens, UniProt Q13085); assay: Inhibition of human recombinant ACC1 expressed in HEK293 cells; assay type: cell-based
# Acetyl-CoA carboxylase 2 = Acetyl-CoA carboxylase 2 (Homo sapiens, UniProt O00763); assay: Inhibition of human recombinant ACC2 expressed in baculovirus/sf9 system
# Acetyl-CoA carboxylase 2, sequence (O00763 whole entry): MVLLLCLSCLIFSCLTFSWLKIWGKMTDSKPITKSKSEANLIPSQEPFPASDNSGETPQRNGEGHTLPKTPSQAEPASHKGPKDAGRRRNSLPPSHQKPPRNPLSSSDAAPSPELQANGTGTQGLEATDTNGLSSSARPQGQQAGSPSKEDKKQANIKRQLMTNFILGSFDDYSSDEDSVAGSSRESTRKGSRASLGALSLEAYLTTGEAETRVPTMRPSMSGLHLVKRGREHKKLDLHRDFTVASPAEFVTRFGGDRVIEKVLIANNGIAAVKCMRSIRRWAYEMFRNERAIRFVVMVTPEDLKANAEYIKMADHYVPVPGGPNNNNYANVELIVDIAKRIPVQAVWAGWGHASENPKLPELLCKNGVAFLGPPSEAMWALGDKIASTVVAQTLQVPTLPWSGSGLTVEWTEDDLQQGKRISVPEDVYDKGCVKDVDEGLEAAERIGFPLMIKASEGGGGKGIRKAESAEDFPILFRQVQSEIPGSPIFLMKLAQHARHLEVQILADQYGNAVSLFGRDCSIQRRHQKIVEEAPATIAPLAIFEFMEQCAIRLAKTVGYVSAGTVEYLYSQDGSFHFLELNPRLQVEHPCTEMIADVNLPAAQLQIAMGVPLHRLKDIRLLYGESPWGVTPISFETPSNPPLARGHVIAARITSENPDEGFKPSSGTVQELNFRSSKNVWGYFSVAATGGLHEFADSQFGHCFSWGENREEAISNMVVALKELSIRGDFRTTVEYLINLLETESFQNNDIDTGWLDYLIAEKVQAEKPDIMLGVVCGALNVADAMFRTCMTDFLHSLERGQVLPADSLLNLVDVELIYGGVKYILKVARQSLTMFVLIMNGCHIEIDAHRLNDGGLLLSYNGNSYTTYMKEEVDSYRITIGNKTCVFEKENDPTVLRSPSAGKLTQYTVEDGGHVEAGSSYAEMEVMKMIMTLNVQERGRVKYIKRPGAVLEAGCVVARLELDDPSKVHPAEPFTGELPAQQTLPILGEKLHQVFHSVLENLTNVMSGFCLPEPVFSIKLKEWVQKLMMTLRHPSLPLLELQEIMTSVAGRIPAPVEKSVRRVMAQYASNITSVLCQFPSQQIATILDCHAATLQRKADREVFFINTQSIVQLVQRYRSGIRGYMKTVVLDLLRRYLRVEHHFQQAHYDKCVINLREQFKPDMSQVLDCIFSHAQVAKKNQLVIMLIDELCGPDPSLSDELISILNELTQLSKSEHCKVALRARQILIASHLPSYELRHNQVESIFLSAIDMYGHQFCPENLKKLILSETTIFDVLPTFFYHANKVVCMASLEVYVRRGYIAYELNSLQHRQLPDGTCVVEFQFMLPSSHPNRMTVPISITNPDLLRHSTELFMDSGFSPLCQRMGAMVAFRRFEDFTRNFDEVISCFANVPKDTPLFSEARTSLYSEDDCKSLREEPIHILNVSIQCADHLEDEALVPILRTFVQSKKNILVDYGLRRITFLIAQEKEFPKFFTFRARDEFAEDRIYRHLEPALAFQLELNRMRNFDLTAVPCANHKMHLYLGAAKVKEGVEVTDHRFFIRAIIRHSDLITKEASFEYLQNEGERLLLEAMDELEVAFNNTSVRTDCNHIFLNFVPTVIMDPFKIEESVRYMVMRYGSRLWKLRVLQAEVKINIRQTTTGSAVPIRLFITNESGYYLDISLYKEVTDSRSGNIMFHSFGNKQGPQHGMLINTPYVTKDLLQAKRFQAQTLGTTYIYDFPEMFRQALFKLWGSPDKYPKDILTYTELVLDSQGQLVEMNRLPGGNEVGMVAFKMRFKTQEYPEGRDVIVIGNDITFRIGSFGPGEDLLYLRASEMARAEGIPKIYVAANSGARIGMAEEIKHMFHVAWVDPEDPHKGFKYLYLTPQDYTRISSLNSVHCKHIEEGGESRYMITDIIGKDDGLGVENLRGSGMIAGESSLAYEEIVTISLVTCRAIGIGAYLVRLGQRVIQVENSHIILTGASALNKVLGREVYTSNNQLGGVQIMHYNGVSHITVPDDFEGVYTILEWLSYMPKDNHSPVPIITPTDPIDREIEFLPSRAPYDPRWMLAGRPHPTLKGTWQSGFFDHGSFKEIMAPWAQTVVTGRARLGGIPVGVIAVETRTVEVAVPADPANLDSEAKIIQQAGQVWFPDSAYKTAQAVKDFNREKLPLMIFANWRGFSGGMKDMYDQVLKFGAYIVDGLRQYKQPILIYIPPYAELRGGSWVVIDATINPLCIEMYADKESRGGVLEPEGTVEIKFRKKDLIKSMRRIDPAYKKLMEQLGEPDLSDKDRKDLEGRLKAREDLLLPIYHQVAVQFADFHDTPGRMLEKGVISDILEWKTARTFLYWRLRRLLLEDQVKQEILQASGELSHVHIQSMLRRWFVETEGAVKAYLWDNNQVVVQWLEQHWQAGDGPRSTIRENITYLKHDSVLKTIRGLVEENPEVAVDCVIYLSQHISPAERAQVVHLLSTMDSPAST
# Rattus norvegicus [1] = assay: Reduction of mCoA level in Sprague-Dawley rat muscle at 10 mg/kg, po; assay type: functional
# Rattus norvegicus [2] = assay: Reduction of mCoA level in Sprague-Dawley rat liver at 50 mg/kg, po; assay type: functional
# Rattus norvegicus [3] = assay: Drug concentration in Sprague-Dawley rat plasma at 50 mg/kg; assay type: ADME, organism-based; parameters: dose 50 mg/kg; settings: in vivo
# Rattus norvegicus [4] = assay: Reduction of mCoA level in Sprague-Dawley rat muscle at 50 mg/kg, po; assay type: functional
# Rattus norvegicus [5] = assay: Drug concentration in Sprague-Dawley rat plasma at 10 mg/kg; assay type: ADME, organism-based; parameters: dose 10 mg/kg; settings: in vivo
# Rattus norvegicus [6] = assay: Reduction of mCoA level in Sprague-Dawley rat liver at 10 mg/kg, po; assay type: functional, organism-based; parameters: dose 10 mg/kg
# [7] = Cmax in rat at 5 mg/kg; assay type: ADME, organism-based; parameters: dose 5 mg/kg; settings: in vivo
# [8] = Tmax in rat at 5 mg/kg; assay type: ADME, organism-based; parameters: dose 5 mg/kg; settings: in vivo
# [9] = Half life in rat at 5 mg/kg, po; assay type: ADME, organism-based; parameters: dose 5 mg/kg, route oral; settings: in vivo
# [10] = Bioavailability in rat at 5 mg/kg; assay type: ADME, organism-based; settings: in vivo
# [11] = AUC in rat at 5 mg/kg, po; assay type: ADME, organism-based; parameters: dose 5 mg/kg, route oral; settings: plasma
# [12] = Plasma clearance in rat at 5 mg/kg; assay type: ADME, organism-based; parameters: dose 5 mg/kg
# [13] = Volume of distribution in rat at 5 mg/kg; assay type: ADME, organism-based; parameters: dose 5 mg/kg; settings: in vivo, read-out: Vss
IC50 (Acetyl-CoA carboxylase 1) [nM],IC50 (Acetyl-CoA carboxylase 2) [nM],SMILES,also measured
> 30000,26,CC(C#Cc1cnc(Oc2ccc(Oc3ccccc3)cc2)s1)NC(N)=O (stereo not drawn),–
> 30000,69,CC(=O)NC(C)C#Cc1cnc(Sc2ccc(OC(C)C)cc2)s1 (stereo not drawn),–
410,38,O=C(c1c2ccccc2cc2ccccc12)N1CCC(N2CCC[C@@H](C(=O)N3CCOCC3)C2)CC1,–
> 30000,1730,CC(=O)NCC#Cc1cnc(Oc2ccc(OC(C)C)cc2)s1,–
> 30000,150,CC(=O)NC(C)C#Cc1cnc(Oc2ccc(NC(C)C)cc2)s1 (stereo not drawn),–
1000,80,CC(C#Cc1cnc(Oc2ccc(Oc3ccccc3)cc2)s1)N(O)C(N)=O (stereo not drawn),–
> 30000,1510,COC(=O)N[C@H](C)C#Cc1cnc(Oc2ccc(OC(C)C)cc2)s1,Activity (Rattus norvegicus [1]; Muscle tissue): inactive; Activity (Rattus norvegicus [2]): inactive; Cp (Rattus norvegicus [3]): 5330 ng/mL; Activity (Rattus norvegicus [4]; Muscle tissue): inactive; Cp (Rattus norvegicus [5]): 1330 ng/mL; Activity (Rattus norvegicus [6]): inactive
> 30000,840,CC(=O)NC(C#Cc1cnc(Oc2ccc(OC(C)C)cc2)s1)C1CC1 (stereo not drawn),–
> 30000,38,COC(=O)N[C@@H](C)C#Cc1cnc(Oc2ccc(OC(C)C)cc2)s1,Activity (Rattus norvegicus [1]): 36%; Activity (Rattus norvegicus [2]): 26%; Cp (Rattus norvegicus [3]): 4900 ng/mL; Activity (Rattus norvegicus [4]): 54%; Cp (Rattus norvegicus [5]): 1540 ng/mL
1250,> 30000,CC(=O)NC(C)C#Cc1cnc(Oc2ccc(C(C)C)cc2)s1 (stereo not drawn),–
> 30000,600,CC(O)C#Cc1cnc(Oc2ccc(Oc3ccccc3)cc2)s1 (stereo not drawn),–
370,55,CC(=O)NC(C)C#Cc1cnc(Oc2ccc(SC(C)C)cc2)s1 (stereo not drawn),–
> 30000,> 30000,CC(=O)NC(C)C#Cc1csc(Oc2ccc(OC(C)C)cc2)n1 (stereo not drawn),–
390,15,CC(=O)NC(C)C#Cc1cnc(Oc2ccc(OC(C)C)nc2)s1 (stereo not drawn),–
29,6,CC(=O)NC(C)C#Cc1ccc(Oc2ccc(OC(C)C)cc2)cc1 (stereo not drawn),–
> 30000,2420,CC(N)C#Cc1cnc(Oc2ccc(Oc3ccccc3)cc2)s1 (stereo not drawn),–
> 30000,96,COC(=O)NC(C)C#Cc1cnc(Oc2ccc(OC(C)C)cc2)s1 (stereo not drawn),Cmax [7]: 900 ng/mL; Tmax [8]: 2 h; half-life [9]: > 12 h; bioavailability [10]: 80.4%; AUC [11]: 18900 ng·h/mL; clearance [12]: 3.33 mL/min/kg; Vd [13]: 5 L/kg
260,11,CC(=O)NC(C)C#Cc1cnc(Oc2ccc(Oc3ccccc3)cc2)s1 (stereo not drawn),–
> 30000,19,CC(=O)NC(C)C#Cc1cnc(Oc2ccc(OC(C)C)cc2)s1 (stereo not drawn),–
> 30000,30,CNC(=O)NC(C)C#Cc1cnc(Oc2ccc(OC(C)C)cc2)s1 (stereo not drawn),–
